Measured values published in publication PMC9862037, “Interactions of Mycotoxin Alternariol with Cytochrome P450 Enzymes and OATP Transporters” (Metabolites, 2022).
Where two headings read alike, the source gives them in different places.

Experiments:
CYP3A4 = conditions: read-out: IC50, CYP3A4-catalyzed midazolam hydroxylation, cited from earlier work
CYP2C9 = conditions: read-out: IC50, CYP2C9-catalyzed tolbutamide hydroxylation; cited from earlier work
CYP2D6 = conditions: read-out: IC50, CYP2D6-mediated dextromethorphan O-demethylation; cited from earlier work
OATP1B1 = OATP1B1 (Homo sapiens, UniProt Q9Y6L6); assay type: cell-based; design: expressed in transfected cells
Procedure: The assays were performed as described recently. Cells were seeded on 96-well plates one day prior to the measurement. After washing three times with PBS at room temperature, cells were incubated for 15 min with 8-acetoxy-1,3,6-trisulfopyrene (Ace, 5 µM). After this “preloading” stage, the supernatant was removed, and the cells were incubated with the same amount of the probe (Counterflow assay) or without the probe in buffer pH 5.5 (Efflux assay) in the absence and the presence of AOH for further 20 min. Fixed concentrations of AOH were selected based on the IC50 values determined in the transport inhibition assay. […]. Cells were washed three times with ice-cold PBS, then NaOH solution (0.1 N, 200 µL/well) was added. After 20 min, fluorescence was measured with an Enspire plate reader in Ex/Em wavelengths 460/510 nm. Bottom reading was applied with two horizontal (X) and two vertical (Y) points, measurement height was 3 mm with 200 flashes. Fluorescence was compared to the preloaded control incubated with Ace alone, considered as 100%.

OATP1B1, sequence (Q9Y6L6 whole entry): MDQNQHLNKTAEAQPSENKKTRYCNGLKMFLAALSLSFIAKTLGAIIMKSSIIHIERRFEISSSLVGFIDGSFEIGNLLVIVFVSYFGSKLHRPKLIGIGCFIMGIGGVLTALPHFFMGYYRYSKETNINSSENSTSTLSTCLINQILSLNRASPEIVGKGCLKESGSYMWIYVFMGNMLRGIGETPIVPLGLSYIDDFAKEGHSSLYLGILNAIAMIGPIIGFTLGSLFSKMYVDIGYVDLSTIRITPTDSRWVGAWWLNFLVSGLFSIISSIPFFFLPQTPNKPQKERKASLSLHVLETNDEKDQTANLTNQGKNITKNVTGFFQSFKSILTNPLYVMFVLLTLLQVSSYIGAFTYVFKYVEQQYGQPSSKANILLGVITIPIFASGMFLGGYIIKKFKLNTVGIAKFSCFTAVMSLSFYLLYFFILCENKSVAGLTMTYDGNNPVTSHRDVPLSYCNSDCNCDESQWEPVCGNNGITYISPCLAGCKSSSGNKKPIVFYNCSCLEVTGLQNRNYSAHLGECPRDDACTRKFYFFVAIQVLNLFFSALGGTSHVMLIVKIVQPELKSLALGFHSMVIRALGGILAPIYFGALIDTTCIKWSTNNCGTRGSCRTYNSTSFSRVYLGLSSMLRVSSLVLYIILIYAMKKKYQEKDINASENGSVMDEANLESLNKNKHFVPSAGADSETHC

Question: Which IC50 (CYP3A4) does the source give for `CC(=O)OC[C@]12C[C@H](OC(=O)CC(C)C)C(C)=C[C@H]1O[C@@H]1[C@H](O)[C@@H](OC(C)=O)[C@@]2(C)[C@]12CO2` [T-2 toxin] here?
Answer: Its IC50 is 27 µM.

Question: With `C[C@H]1CCCC(=O)CCC/C=C/c2cc(O)cc(O)c2C(=O)O1` [Zearalenone] as the compound, how does the IC50 (CYP2C9) read?
Answer: The IC50 was 0.54 µM.

Question: And the IC50 (CYP2D6)?
Answer: Its IC50 is 55.4 µM.

Question: What about the IC50 (CYP3A4; in vitro) of the same compound?
Answer: The IC50 was 1.1 µM.

Question: Which results are given for `C=O` [formaldehyde]?
Answer: fluorescence signal in the CCF (OATP1B1): no change in the fluorescence; effect on efflux of the probe (OATP1B1; pH 5.5): blocks the efflux
